US11072632B2, “Inhibitors of 17β-HSD1, 17β-HSD3 and 17β-HSD10” (UNIVERSITÉ LAVAL, priority 2011, dated 2021)
pIC50: −log10 of the molar value. Where two headings read alike, the source gives them in different places.

What was measured:
17β-HSD3 [1] = biological target: T1, 17β-HSD3 (Homo sapiens, UniProt P37058); experiment: Inhibition of 17β-HSD3 in homogenated HEK-293 cells; assay type: biochemical
T1 construct: expressed in transfected cells; host or cells: HEK-293 (homogenate)
T1 sequence (P37058 1-310): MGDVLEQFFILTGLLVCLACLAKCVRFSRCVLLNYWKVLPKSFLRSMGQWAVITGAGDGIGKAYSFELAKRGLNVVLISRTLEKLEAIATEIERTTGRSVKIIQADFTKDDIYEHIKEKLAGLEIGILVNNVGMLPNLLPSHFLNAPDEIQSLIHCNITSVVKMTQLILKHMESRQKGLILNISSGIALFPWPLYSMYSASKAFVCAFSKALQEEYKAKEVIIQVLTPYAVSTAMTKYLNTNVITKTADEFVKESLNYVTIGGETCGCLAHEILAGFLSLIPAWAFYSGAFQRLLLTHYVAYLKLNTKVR

17β-HSD3 [2] = biological target: T1, 17β-HSD3; experiment: Inhibition of 17β-HSD3 in intact HEK-293 cells; assay type: cell-based; details: for inhibition at 0.1 µM / inhibition at 1 µM: HEK293, 1 h
[3] = Table 2 (17β-HSD3), read-out: Homo (%) (0.1 μM)
[4] = Table 2 (17β-HSD3), 1 μM, read-out: Homo (%) (1 μM)
[5] = Table 2 (17β-HSD3), [14C]-Δ4-dione 50 nM into [14C]-T, read-out: Homo (%) (0.01 μM)
[6] = Table 2 (17β-HSD3), read-out: Intact cells (%) (0.1 μM)
[7] = Table 2 (17β-HSD3), read-out: Intact cells (%) (1 μM)
[8] = read-out: Homo (%) (0.1 μM), Table 2 (17β-HSD3)
[9] = read-out: Homo (%) (1 μM), Table 2 (17β-HSD3), 1 μM
[10] = read-out: Intact cells (%) (1 μM), Table 2 (17β-HSD3)

Row | SMILES | inhibition at 0.1 µM (17β-HSD3 [1]; [3]) | inhibition at 1 µM (17β-HSD3 [1]; [4]) | inhibition at 0.01 µM (17β-HSD3 [1]; [5]) | inhibition at 1 µM (17β-HSD3 [2]; [7]) | other results
1 | C[C@]12CC[C@@]3(C[C@@H]1CC[C@@H]1[C@@H]2CC[C@]2(C)C(=O)CC[C@@H]12)CN(CCC(CN1CCOCC1)OC(=O)CCC1CCCC1)C(=O)O3 (stereo partly drawn) [Compound 4, reference compound] | – | – | – | – | inhibition at 0.01 µM (17β-HSD3 [1]; read-out: Homo (%) (0.01 μM), Table 4): 2%; inhibition at 0.1 µM (17β-HSD3 [1]; read-out: Homo (%) (0.1 μM), Table 4): 79%; inhibition at 1 µM (17β-HSD3 [1]; read-out: Homo (%) (1.0 μM), Table 4, 1.0 μM): 94%; inhibition at 0.1 µM (17β-HSD3 [2]; read-out: Intact cells (%) (0.1 μM), Table 4): 49%
2 | CN(Cc1ccccc1)C[C@@]1(O)CC[C@@]2(C)[C@@H](CC[C@@H]3[C@@H]2CC[C@]2(C)C(=O)CC[C@@H]32)C1 [Compound 7b, (3α,5α)-3-{[benzyl(methyl)amino]methyl}-3-hydroxyandrostan-17-one] | 79% | 89% | 28% | 92% | inhibition at 0.1 µM (17β-HSD3 [2]; [6]): 48%
3 | CCN(CC)C[C@@]1(O)CC[C@@]2(C)[C@@H](CC[C@@H]3[C@@H]2CC[C@]2(C)C(=O)CC[C@@H]32)C1 [Compound 7c, (3α,5α)-3-[(diethylamino)methyl]-3-hydroxyandrostan-17-one] | 10% | 60% | 0% | 14% | –
4 | CCCCN(CCCC)C[C@@]1(O)CC[C@@]2(C)[C@@H](CC[C@@H]3[C@@H]2CC[C@]2(C)C(=O)CC[C@@H]32)C1 [Compound 7d, (3α,5α)-3-[(dibutylamino)methyl]-3-hydroxyandrostan-17-one] | 70% | 85% | 13% | 90% | inhibition at 0.1 µM (17β-HSD3 [2]; [6]): 53%
5 | C[C@]12CC[C@](O)(CN3CCCCC3)C[C@@H]1CC[C@@H]1[C@@H]2CC[C@]2(C)C(=O)CC[C@@H]12 [Compound 7e, (3α,5α)-3-hydroxy-3-(piperidin-1-ylmethyl)androstan-17-one] | – | – | 9% | – | inhibition at 0.1 µM (17β-HSD3 [1]; [8]): 19%; inhibition at 1 µM (17β-HSD3 [1]; [9]): 69%; inhibition at 1 µM (17β-HSD3 [2]; [10]): 23%
6 | C[C@]12CC[C@](O)(CN3CCC(Cc4ccccc4)CC3)C[C@@H]1CC[C@@H]1[C@@H]2CC[C@]2(C)C(=O)CC[C@@H]12 [Compound 7f, (3α,5α)-3-[(4-benzylpiperidin-1-yl)methyl]-3-hydroxyandrostan-17-one] | – | – | 40% | – | inhibition at 0.1 µM (17β-HSD3 [1]; [8]): 82%; inhibition at 1 µM (17β-HSD3 [1]; [9]): 90%; inhibition at 1 µM (17β-HSD3 [2]; [10]): 52%
7 | C[C@]12CC[C@](O)(CN3CCC(N4CCCCC4)CC3)C[C@@H]1CC[C@@H]1[C@@H]2CC[C@]2(C)C(=O)CC[C@@H]12 [Compound 7g, (3α,5α)-3-(1,4′-bipiperidin-1′-ylmethyl)-3-hydroxyandrostan-17-one] | 4% | 69% | 0% | 20% | –
8 | CN1CCN(C[C@@]2(O)CC[C@@]3(C)[C@@H](CC[C@@H]4[C@@H]3CC[C@]3(C)C(=O)CC[C@@H]43)C2)CC1 [Compound 7h, (3α,5α)-3-hydroxy-3-[(4-methylpiperazin-1-yl)methyl]androstan-17-one] | 0% | 40% | 0% | – | inhibition at 0.1 µM (17β-HSD3 [2]; [6]): 2%
9 | C[C@]12CC[C@](O)(CN3CCN(c4ccccc4)CC3)C[C@@H]1CC[C@@H]1[C@@H]2CC[C@]2(C)C(=O)CC[C@@H]12 [Compound 7i, (3α,5α)-3-hydroxy-3-[(4-phenylpiperazin-1-yl)methyl]androstan-17-one] | – | – | 13% | – | inhibition at 0.1 µM (17β-HSD3 [1]; [8]): 78%; inhibition at 1 µM (17β-HSD3 [1]; [9]): 89%; inhibition at 1 µM (17β-HSD3 [2]; [10]): 68%
10 | C[C@]12CC[C@](O)(CN3CCN(Cc4ccc(C(F)(F)F)cc4)CC3)C[C@@H]1CC[C@@H]1[C@@H]2CC[C@]2(C)C(=O)CC[C@@H]12 [Compound 10c, (3α,5α)-3-hydroxy-3-({4-[4-(trifluoromethyl)benzyl]piperazin-1-yl}methyl)androstan-17-one] | – | – | – | – | inhibition at 0.01 µM (17β-HSD3 [1]; Table 3, read-out: Homo (%) (0.01 μM)): 14%; inhibition at 0.1 µM (17β-HSD3 [1]; Table 3, read-out: Homo (%) (0.1 μM)): 81%; inhibition at 0.1 µM (17β-HSD3 [2]; Table 3, read-out: Intact cells (%) (0.1 μM)): 33%
11 | C[C@]12CCC(=O)C=C1CC[C@@H]1[C@@H]2CC[C@]2(C)C(=O)CC[C@@H]12 [Δ^4-dione, 4-androstene-3,17-dione, reference compound] | – | – | – | – | pIC50 (17β-HSD3 [2]; intact HEK-293 cells overexpressing 17β-HSD3, [14C]-Δ4-dione 50 nM): 6.47
